Measurements as given in patent US9849131B2 (AUTIFONY THERAPEUTICS LIMITED, priority 2009, dated 2017).

Target: T1, hKv3.2 (Homo sapiens, UniProt Q96PR1)
T1 construct: expressed in transfected cells; host or cells: CHO-K1
T1 sequence (Q96PR1 1-638): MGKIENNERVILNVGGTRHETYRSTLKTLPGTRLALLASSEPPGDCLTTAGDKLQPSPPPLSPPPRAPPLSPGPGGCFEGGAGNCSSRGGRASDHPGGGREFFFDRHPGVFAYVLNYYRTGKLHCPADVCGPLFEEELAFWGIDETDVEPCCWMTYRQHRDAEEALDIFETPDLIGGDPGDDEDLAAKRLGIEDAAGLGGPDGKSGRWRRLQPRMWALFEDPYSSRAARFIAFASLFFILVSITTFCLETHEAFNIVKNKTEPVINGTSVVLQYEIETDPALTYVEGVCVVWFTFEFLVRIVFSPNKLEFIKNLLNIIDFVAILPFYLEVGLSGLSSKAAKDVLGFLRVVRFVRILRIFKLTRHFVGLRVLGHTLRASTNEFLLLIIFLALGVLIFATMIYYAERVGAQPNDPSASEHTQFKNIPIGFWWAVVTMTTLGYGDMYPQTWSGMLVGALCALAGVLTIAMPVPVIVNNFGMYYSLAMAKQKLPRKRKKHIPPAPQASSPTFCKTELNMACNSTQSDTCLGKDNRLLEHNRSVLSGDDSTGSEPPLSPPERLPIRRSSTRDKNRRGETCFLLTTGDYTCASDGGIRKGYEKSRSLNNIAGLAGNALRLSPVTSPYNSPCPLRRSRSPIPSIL
Assay: IonWorks Quattro assay, secondary analysis of activation time constant (Tauact)
Format: cell-based
Conditions: classification from effect on Tauact
Experimental: A stable cell line expressing human Kv3.2 channels (hKv3.2) was created by transfecting Chinese Hamster Ovary (CHO)-K1 cells with a pCIH5-hKv3.2 vector. Cells were cultured in DMEM/F12 medium supplemented by 10% Foetal Bovine Serum, 1× non-essential amino acids (Invitrogen) and 500 ug/ml of Hygromycin-B (Invitrogen). Cells were grown and maintained at 37° C. in a humidified environment containing 5% CO2 in air.
The day of the experiment, cells were removed from the incubator and the culture medium removed. Cells were washed with 5 ml of Dulbecco's PBS (DPBS) calcium and magnesium free and detached by the addition of 3 ml Versene (Invitrogen, Italy) followed by a brief incubation at 37° C. for 5 minutes. The flask was tapped to dislodge cells and 10 ml of DPBS containing calcium and magnesium was added to prepare a cell suspension. The cell suspension was then placed into a 15 ml centrifuge tube and centrifuged for 2 min at 1200 rpm. After centrifugation, the supernatant was removed and the cell pellet re-suspended in 4 ml of DPBS containing calcium and magnesium using a 5 ml pipette to break […] up the pellet. Cell suspension volume was then corrected to give a cell concentration for the assay of approximately 3 million cells per ml.
Experiments were conducted at room temperature using IonWorks Quattro™ planar array electrophysiology technology (Molecular Devices Corp.) with PatchPlate™ PPC. Stimulation protocols and data acquisition were carried out using a microcomputer (Dell Pentium 4). Planar electrode hole resistances (Rp) were determined by applying a 10 mV voltage step across each well. These measurements were performed before cell addition. […] Following this, amphotericin-B solution was added to the intracellular face of the electrode to achieve intracellular access. Cells were held at −70 mV. Leak subtraction was conducted in all experiments by applying 50 ms hyperpolarizing (10 mV) prepulses to evoke leak currents followed by a 20 ms period at the holding potential before test pulses. From the holding potential of −70 mV, a first test pulse to −15 mV was applied for 100 ms and following a further 100 ms at −70 mV, a second pulse to 40 mV was applied for 50 ms. Cells were then maintained for a further 100 ms at −100 mV and then a voltage ramp from −100 mV to 40 mV was applied over 200 ms. In all experiments, the test pulses protocol was performed in the absence (pre-read) and presence (post-read) of the test compound. Pre- and post-reads were separated by the compound addition followed by a 3 minute incubation.
The magnitude of the effect of a compound can be determined from the time constant (Tauact) obtained from a non-linear fit, using the equation given below, of the rise in Kv3.1 or Kv3.2 currents following the start of the depolarising voltage pulse. Y=(Y0−Ymax)*exp(−K*X)+Ymax
Where: • Y0 is the current value at the start of the depolarising voltage pulse; • Ymax is the plateau current;
K is the rate constant, and Tauact is the activation time constant, which is the reciprocal of K.

Compound: CC[C@H]1NC(=O)N(c2ccc(Oc3ccc(C)c(OC)c3)nc2)C1=O [Example 19, (5R)-5-ethyl-3-(6-{[4-methyl-3-(methyloxy)phenyl]oxy}-3-pyridinyl)-2,4-imidazolidinedione]
- acts as positive or negative modulator of Kv3.1 and/or Kv3.2: positive modulators
